We go through 26 compounds from patent publication US9708334B2, “Substituted 2,4,5,6-tetrahydropyrrolo[3,4-c]pyrazole and 4,5,6,7-tetrahydro-2H-pyrazolo[4,3-c]pyridine compounds as GlyT1 inhibitors” (DART NEUROSCIENCE (CAYMAN) LTD., priority 2014, dated 2017).

Some results are limits rather than exact numbers.

This test deals with T1, GlyT1 (Homo sapiens, UniProt P48067).
T1 construct: expressed in transfected cells
T1 sequence (P48067 1-706): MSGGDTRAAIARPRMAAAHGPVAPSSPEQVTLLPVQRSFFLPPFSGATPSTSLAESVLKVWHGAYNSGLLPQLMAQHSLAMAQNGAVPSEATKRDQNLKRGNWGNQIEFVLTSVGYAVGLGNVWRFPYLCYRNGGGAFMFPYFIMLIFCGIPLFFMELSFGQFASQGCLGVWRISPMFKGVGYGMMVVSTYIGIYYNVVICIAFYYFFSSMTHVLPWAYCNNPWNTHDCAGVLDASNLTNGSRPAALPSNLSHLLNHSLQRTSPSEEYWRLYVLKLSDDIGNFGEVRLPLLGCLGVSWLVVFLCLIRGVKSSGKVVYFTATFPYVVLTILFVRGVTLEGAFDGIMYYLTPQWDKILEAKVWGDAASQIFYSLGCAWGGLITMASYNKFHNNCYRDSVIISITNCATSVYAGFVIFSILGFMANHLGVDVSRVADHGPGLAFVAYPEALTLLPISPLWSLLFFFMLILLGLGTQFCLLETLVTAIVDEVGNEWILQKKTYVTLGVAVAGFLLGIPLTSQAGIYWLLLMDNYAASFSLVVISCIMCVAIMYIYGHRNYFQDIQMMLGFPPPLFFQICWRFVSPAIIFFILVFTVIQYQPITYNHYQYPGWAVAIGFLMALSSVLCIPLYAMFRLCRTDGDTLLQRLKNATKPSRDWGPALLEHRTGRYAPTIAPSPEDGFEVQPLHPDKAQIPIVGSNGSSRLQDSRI
As to the kind of experiment: Glycine Transporter 1 (GlyT1) uptake assay, scintillation proximity assay of [14C]-glycine uptake. The conditions noted are these: SPA, four parameter logistic fit, read-out: GlyT1 (pIC50) (converted). The format is cell-based. The method, boiled down:
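[14C]-glycine uptake read by scintillation proximity on a plate counter. IC50 from four-parameter logistic fit of dose-response data.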
Take `COc1c(C#N)ccc(OC(C)C(F)(F)F)c1C(=O)N1CCc2nn(-c3ncc(F)cc3F)cc2C1` (centres unmarked) [Example 233, 3-[2-(3 5-Difluoropyridin-2-yl)-2H 4H 5H 6H 7H-pyrazolo[4,3-c]pyridine-5-carbonyl]-2-methoxy-4-[(1 1 1-trifluoropropan-2-yl)oxy]benzonitrile]: the IC50 was 100 to 1000 nM.

As to `COc1c(C#N)ccc(OC(C)C(F)(F)F)c1C(=O)N1CCc2nn(-c3ccc(F)cc3)c(C)c2C1` (centres unmarked) [Example 473, 3-[2-(4-Fluorophenyl)-3-methyl-2H 4H 5H 6H 7H-pyrazolo[4,3-c]pyridine-5-carbonyl]-2-methoxy-4-[(1 1 1-trifluoropropan-2-yl)oxy]benzonitrile], the IC50 was > 10000 nM. The result for `COc1ncc(-n2cc3c(n2)CN(C(=O)c2c(O[C@@H](C)C(F)(F)F)ccc(C#N)c2OC)C3)cc1F` [Example 316, 3-[2-(5-Fluoro-6-methoxypyridin-3-yl)-2H 4H 5H 6H-pyrrolo[3,4-c]pyrazole-5-carbonyl]-2-methoxy-4-{[(2S)-1 1 1-trifluoropropan-2-yl]oxy}benzonitrile] reads < 100 nM; that for `COc1ccc(-n2cc3c(n2)CCN(C(=O)c2c(OC(C)C(F)(F)F)ccc(C#N)c2Cl)C3)cc1` (centres unmarked) [Example 206, 2-Chloro-3-[2-(4-methoxyphenyl)-2H 4H 5H 6H 7H-pyrazolo[4,3-c]pyridine-5-carbonyl]-4-[(1 1 1-trifluoropropan-2-yl)oxy]benzonitrile], 100 to 1000 nM. The result for `CC(C)Oc1ccc(S(C)(=O)=O)cc1C(=O)N1Cc2cn(-c3cccc(Cl)c3F)nc2C1` [Example 148, 2-(3-Chloro-2-fluorophenyl)-5-[5-methanesulfonyl-2-(propan-2-yloxy)benzoyl]-2H 4H 5H 6H-pyrrolo[3,4-c]pyrazole] reads < 100 nM; that for `CC(Oc1ccc(C#N)cc1C(=O)N1CCc2nn(-c3ccc(F)cc3)cc2C1)C(F)(F)F` (centres unmarked) [Example 181, 3-[2-(4-Fluorophenyl)-2H 4H 5H 6H 7H-pyrazolo[4,3-c]pyridine-5-carbonyl]-4-[(1 1 1-trifluoropropan-2-yl)oxy]benzonitrile], 1000 to 10000 nM. With `CCC(CC)Oc1ccc(C#N)c(OC)c1C(=O)N1Cc2cn(-c3ccc(F)cc3)nc2C1` [Example 518, 3-[2-(4-Fluorophenyl)-2H 4H 5H 6H-pyrrolo[3,4-c]pyrazole-5-carbonyl]-2-methoxy-4-(pentan-3-yloxy)benzonitrile], the IC50 was < 100 nM. The result for `CS(=O)(=O)c1ccc(-c2cccc(F)c2)c(C(=O)N2Cc3cn(CC4CC(F)(F)C4)nc3C2)c1` [Example 464, 2-[(3 3-Difluorocyclobutyl)methyl]-5-[2-(3-fluorophenyl)-5-methanesulfonylbenzoyl]-2H 4H 5H 6H-pyrrolo[3,4-c]pyrazole] reads < 100 nM; that for `COc1c(C#N)ccc(OC(C)C(F)(F)F)c1C(=O)N1CCc2nn(-c3ccc(F)cc3F)cc2C1` (centres unmarked) [Example 194, 3-[2-(2 4-Difluorophenyl)-2H 4H 5H 6H 7H-pyrazolo[4,3-c]pyridine-5-carbonyl]-2-methoxy-4-[(1 1 1-trifluoropropan-2-yl)oxy]benzonitrile], 100 to 1000 nM. The result for `COc1c(C#N)ccc(O[C@@H](C)C(F)(F)F)c1C(=O)N1Cc2cn(-c3cccnc3)nc2C1` [Example 246, 2-Methoxy-3-[2-(pyridin-3-yl)-2H 4H 5H 6H-pyrrolo[3,4-c]pyrazole-5-carbonyl]-4-{[(2S)-1 1 1-trifluoropropan-2-yl]oxy}benzonitrile] reads < 100 nM.

For the compound `N#Cc1ccc(C2CCCC2)c(C(=O)N2CCc3nn(-c4ccccc4)cc3C2)c1` [Example 169, 4-Cyclopentyl-3-{2-phenyl-2H 4H 5H 6H 7H-pyrazolo[4,3-c]pyridine-5-carbonyl}benzonitrile], the IC50 was 100 to 1000 nM. With `COc1c(C#N)ccc(OC(C)C(F)(F)F)c1C(=O)N1CCc2nn(-c3ccncc3)cc2C1` (centres unmarked) [Example 220, 2-Methoxy-3-[2-(pyridin-4-yl)-2H 4H 5H 6H 7H-pyrazolo[4,3-c]pyridine-5-carbonyl]-4-[(1 1 1-trifluoropropan-2-yl)oxy]benzonitrile], the IC50 was < 100 nM.

As to `COc1c(C#N)ccc(OCC(C)(C)C)c1C(=O)N1Cc2cn(-c3cncc(F)c3)nc2C1` [Example 321, 4-(2 2-Dimethylpropoxy)-3-[2-(5-fluoropyridin-3-yl)-2H 4H 5H 6H-pyrrolo[3,4-c]pyrazole-5-carbonyl]-2-methoxybenzonitrile], the IC50 is < 100 nM.

Take `CCS(=O)(=O)c1ccc(O[C@@H](C)C(F)(F)F)c(C(=O)N2Cc3cn(-c4cccc(Cl)c4F)nc3C2)c1` [Example 150, 2-(3-Chloro-2-fluorophenyl)-5-[5-(ethanesulfonyl)-2-{[(2S)-1 1 1-trifluoropropan-2-yl]oxy}benzoyl]-2H 4H 5H 6H-pyrrolo[3,4-c]pyrazole]: the IC50 is < 100 nM. The result for `CCS(=O)(=O)c1ccc(N2CCC(F)(F)CC2)c(C(=O)N2Cc3cn(-c4cc(C)ccc4F)nc3C2)c1` [Example 128, 1-[4-(Ethanesulfonyl)-2-[2-(2-fluoro-5-methylphenyl)-2H 4H 5H 6H-pyrrolo[3,4-c]pyrazole-5-carbonyl]phenyl]-4 4-difluoropiperidine] reads < 100 nM; that for `CC(Oc1ccc(C#N)cc1C(=O)N1Cc2cn(-c3ccc(F)cn3)nc2C1)C(F)(F)F` (centres unmarked) [Example 251], 100 to 1000 nM; that for `COc1c(C#N)ccc(O[C@@H](C)C(F)(F)F)c1C(=O)N1CCc2nn(-c3ccnc(C(F)(F)F)c3)cc2C1` [Example 241, 2-Methoxy-3-{2-[2-(trifluoromethyl)pyridin-4-yl]-2H 4H 5H 6H 7H-pyrazolo[4,3-c]pyridine-5-carbonyl}-4-{[(2S)-1 1 1-trifluoropropan-2-yl]oxy}benzonitrile], 100 to 1000 nM. The result for `CS(=O)(=O)c1ccc(OCC(F)(F)F)c(C(=O)N2Cc3cn(-c4ccc(F)cc4)nc3C2)c1` [Example 103, 2-(4-Fluorophenyl)-5-[5-methanesulfonyl-2-(2 2 2-trifluoroethoxy)benzoyl]-2H 4H 5H 6H-pyrrolo[3,4-c]pyrazole] reads < 100 nM; that for `C[C@H](Oc1ccc(C#N)c(Cl)c1C(=O)N1Cc2cnn(-c3cn(C)cn3)c2C1)C(F)(F)F` [Example 294, 2-Chloro-3-[1-(1-methyl-1H-imidazol-4-yl)-1H 4H 5H 6H-pyrrolo[3,4-c]pyrazole-5-carbonyl]-4-{[(2S)-1 1 1-trifluoropropan-2-yl]oxy}benzonitrile], 100 to 1000 nM; that for `COc1c(S(C)(=O)=O)ccc(OC(C)C(F)(F)F)c1C(=O)N1CCc2nn(-c3ccc(F)cc3)cc2C1` (centres unmarked) [Example 198, 2-(4-Fluorophenyl)-5-{3-methanesulfonyl-2-methoxy-6-[(1 1 1-trifluoropropan-2-yl)oxy]benzoyl}-2H 4H 5H 6H 7H-pyrazolo[4,3-c]pyridine], < 100 nM. In the case of `CCc1cc(-n2cc3c(n2)CN(C(=O)c2cc(S(C)(=O)=O)ccc2O[C@@H](C)C(F)(F)F)C3)ccn1` [Example 133, 2-Ethyl-4-[5-(5-methanesulfonyl-2-{[(2S)-1 1 1-trifluoropropan-2-yl]oxy}benzoyl)-2H 4H 5H 6H-pyrrolo[3,4-c]pyrazol-2-yl]pyridine], the IC50 was < 100 nM. Regarding `CC(C)Oc1ccc(C#N)cc1C(=O)N1Cc2cn(-c3ccc(F)cn3)nc2C1` [Example 335, 3-[2-(5-Fluoropyridin-2-yl)-2H 4H 5H 6H-pyrrolo[3,4-c]pyrazole-5-carbonyl]-4-(propan-2-yloxy)benzonitrile], the IC50 is 100 to 1000 nM. The result for `C[C@H](Oc1ccc(S(C)(=O)=O)cc1C(=O)N1Cc2cn(-c3cccc(C(F)(F)F)c3F)nc2C1)C(F)(F)F` [Example 43, 2-[2-Fluoro-3-(trifluoromethyl)phenyl]-5-(5-methanesulfonyl-2-{[(2S)-1 1 1-trifluoropropan-2-yl]oxy}benzoyl)-2H 4H 5H 6H-pyrrolo[3,4-e]pyrazole] reads < 100 nM; that for `CC(Oc1ccc(S(C)(=O)=O)cc1C(=O)N1CCc2c(cnn2-c2ccccc2)C1)C(F)(F)F` (centres unmarked) [Example 164, 5-{5-Methanesulfonyl-2-[(1 1 1-trifluoropropan-2-yl)oxy]benzoyl}-1-phenyl-1H 4H 5H 6H 7H-pyrazolo[4,3-c]pyridine], 100 to 1000 nM; that for `COc1c(C#N)ccc(OCC2(C)CC2)c1C(=O)N1CCc2nn(-c3ccc(F)cc3)cc2C1` [Example 475, 3-[2-(4-Fluorophenyl)-2H 4H 5H 6H 7H-pyrazolo[4,3-c]pyridine-5-carbonyl]-2-methoxy-4-[(1-methylcyclopropyl)methoxy]benzonitrile], > 10000 nM. The result for `O=C(c1cc(N2CCOC2=O)ccc1C1CCCC1)N1CCc2nn(-c3ccccc3)cc2C1` [Example 171, 3-(4-Cyclopentyl-3-{2-phenyl-2H 4H 5H 6H 7H-pyrazolo[4,3-c]pyridine-5-carbonyl}phenyl)-1 3-oxazolidin-2-one] reads 100 to 1000 nM.
